Measurements as given in patent publication US5759556A, “Skin care compositions containing certain cyclic aliphatic unsaturated compounds and retinol or retinyl ester” (Chesebrough-Pond's USA Co., Division of Conopco, Inc., priority 1996, dated 1998).
Like-named read-outs stand apart in the source and are kept apart here. One block for each compound: values may come before it.

Legend:
[1] = biological target: T1, LRAT (Bos taurus, UniProt Q9BGL2); experiment: In vitro microsomal esterification of retinol, LRAT catalyzed (retinyl laurate formation); assay type: biochemical, bovine; settings: for inhibition at 10 µM: Table B
T1 construct: microsomal fraction isolated from bovine retinal pigment epithelial cells; from tissue; host or cells: bovine retinal pigment epithelial cells, microsomal fraction
T1 sequence (Q9BGL2 1-230): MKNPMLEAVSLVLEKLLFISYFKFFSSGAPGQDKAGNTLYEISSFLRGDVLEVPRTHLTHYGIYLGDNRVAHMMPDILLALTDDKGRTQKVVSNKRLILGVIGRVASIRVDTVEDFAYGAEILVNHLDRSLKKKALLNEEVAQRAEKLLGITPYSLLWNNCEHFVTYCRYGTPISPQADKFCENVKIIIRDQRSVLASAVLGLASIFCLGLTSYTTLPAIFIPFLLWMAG

[2] = tested on: keratinocytes; experiment: Transglutaminase assay, keratinocyte differentiation (Example 4), normalized to DNA; assay type: cell-based, Human; settings: for activity at […]: .00025 mM; for effect on transglutaminase / keratinocyte differentiation (in words): Table D, both experiments; for activity at 1000 µM: 1 mM
Procedure: (§1) Human keratinocytes, isolated from neonatal foreskin by trypsin treatment were grown in Dulbecco Modification Eagle (DME) Hams F12 (1:1) medium/10% fetal calf serum in the presence of irradiated 3T3 mouse fibroblasts for establishing dividing keratinocyte colonies. Cells were grown under the above condition until their second passage and kept frozen for future use. Frozen second passage keratinocytes were thawed and plated into the above medium and grown for five days before they were switched to a serum-free MCDB 153-based medium keratinocyte growth medium (KGM) from Clonetics Corporation, San Diego, Calif., containing 0.15 mM Ca, or keratinocyte serum-free media (KSFM) from GIBCO containing 0.09 mM Ca). On day 7, when the cells were 80-90% confluent, they were trypsinized and plated in the serum-free medium for the various experiments.
(§2) During the process of terminal differentiation in the epidermis, a 15 nm thick layer of protein, known as the cornified envelope (CE) is formed on the inner surface of the cell periphery. The CE is composed of numerous distinct proteins which have been cross-linked together by the formation of N ^ε -(γ-glutamyl) lysine isodipeptide bonds catalyzed by the action of at least two different transglutaminases (TGases) expressed in the epidermis. TGase I is expressed in abundance in the differentiated layers of the epidermis, especially the granular layer, but is absent in the undifferentiated basal epidermis. Thus TGase I is a useful marker of epidermal keratinocyte differentiation with high TGase I levels indicating a more differentiated state. An ELISA based TGase I assay, using a TGase I antibody, was used to assess the state of differentiation of the cultured keratinocytes in the examples that follow.
Keratinocytes (cultured as described above) were plated in 96 well plates at a density of 3,000 cells per well in 200 μl of cell culture media. After incubation for four days, the media was changed to media containing test compounds (six replicates per test). The cells were cultured for a further 72 hours after which time the media was aspirated and the plates stored at -70° C. After the plates were removed from the freezer, the cells were further freezed fractured by freezing and thawing and then washed 3× with PBS. The cells were incubated for one hour at room temperature (R/T) with TBS/5% BSA buffer. Cells were then incubated with 100 μl of monoclonal anti-human transglutaminase (IgG) mouse antibody (primary antibody) obtained from Biomedical Technologies Inc. diluted 1:2000 in TBS/1% BSA buffer for two hours at 37° C., and then rinsed six times with wash buffer (TBS/1% BSA/0.05% Tween-20). Cells were next incubated with 100 μl of Fab fragment, peroxidase conjugated anti-mouse IgG antibody (secondary antibody) from Amersham diluted 1:4,000 in wash buffer for two hours at 37° C. and then rinsed three times with wash buffer and three times with PBS. Cells were incubated with substrate solution (4 mg o-phenylene diamine and 3.3 μl 30% H2 O2 in 10 mL 0.1M citrate buffer, pH 5.0) for five minutes at R/T and in darkness (under aluminum foil). The reaction was stopped by the addition of 50 μl 4N H2SO4. The absorbance of samples was read at 492 nm in the plate reader. Out of the six replicates, four were treated with both antibodies, two were treated only with the secondary antibody (i.e., to determine the background binding of the enzyme conjugated antibody). Transglutaminase I levels were determined by subtracted background from the readings from each treatment and determining the mean s.d. for the replicates exposed to both antibodies.
The level of TGase-1 detected after treatment of the cells could be influenced by cell number, i.e., the greater the number of cells the greater the level of TGase-1 detected. The level of TGase-1 was normalized to DNA content of the cells in the same well thus eliminating variation due to differences in cell number. […]

[3] = tested on: keratinocytes; experiment: 3H-Thymidine incorporation and keratinocyte proliferation (Example 1A); assay type: cell-based, Human; settings: for mean Thymidine incorp./μg protein ± s.d: 24 hours, n = 3
Procedure: as §1
The incorporation of ^3 H-thymidine by cultured keratinocytes was used as an assay of keratinocyte proliferation. Thymidine is one of four deoxynucleosides which are the monomeric units of DNA, the universal library of genetic information in the animal kingdom. Prior to cell division of a somatic cell such as a keratinocyte, the complete genome of the cell undergoing cell division is replicated. This involves large scale DNA synthesis by the cell and enables both daughter cells to receive identical copies of the genetic material. When ^3 H-thymidine is included in the culture media of keratinocytes which are synthesizing DNA in preparation for cell division then the labelled nucleoside is incorporated into the newly synthesized DNA. The extent of incorporation of ^3 H-thymidine into a population of cells is proportional to the rate of DNA synthesis by this population of cells and therefore an indication of their cellular proliferation.
Keratinocytes (that were cultured as described above) were plated in 24 well plates at a density of about 20,000 cells per well in 1 ml media. After incubation for four days or until the cells were 60-70% confluent, the media was changed. Test compounds were added (in triplicate) to the wells 24 hours after the media change, and four hours later 1μCi ^3 H-Thymidine in 50 μl media was added per well. Cells were incubated for a further 24 hours. Media was removed from the cells, 10% ice cold trichloroacetic acid (TCA) added and plates were incubated on ice for 30 minutes. Cells were washed five times with 5% TCA and allowed to dissolve in 500 μl 0.1M NaOH for at least one hour (usually overnight). The preparations were neutralized with 0.1M HCl; 50 μl of the cell preparation was used to determine total protein content. Disintegrations per minute (DPM) from ^3 H labelling of DNA was determined by liquid scintillation counting of 900 μl of the cell preparation. Thymidine incorporation results were expressed as DPM/μg protein.

[4] = tested on: keratinocytes; experiment: Transglutaminase assay and keratinocyte differentiation, TGase normalized to DNA (Example 1B); assay type: cell-based, Human; settings: for keratinocyte differentiation / transglutaminase level (in words): […]10^-7 M, […]10^-8 M and […]10^-9 M, vs ethanol control; for mean TGase/DNA × 10^-4 ± s.d: 72 hours, n = 3
Procedure: as §1, §2
Keratinocytes (cultured as described above) were plated in 96 well plates at a density of 3,000 cells per well in 200 μl media. After incubation for four days the media was changed to media containing test compounds (six replicates per test). The cells were cultured for a further 72 hours after which time the media was aspirated and the plates stored at -70° C. Plates were removed from the freezer, and the cells washed with PBS. 100 μl sterile water was added and the cells were freeze fractured by freezing at -70° C. then thawing. The cells were incubated for one hour at room temperature (R/T) with PBS/3% BSA (wash buffer, bovine serum albumin), then rinsed with a fresh aliquot of wash buffer. Cells were incubated with 50 μl of primary antibodies monoclonal anti-human transglutaminase mouse antibody (IgG) obtained from Biomedical Industries diluted 1:2,000 in wash buffer for one hour, 37° C. then rinsed two times with wash buffer. Cells were then incubated with 50 μl of secondary antibody (Fab fragment, peroxidase conjugated anti-mouse IgG obtaining from Amersham) diluted 1:4,000 in wash buffer for one hour at 37° C., then rinsed two times with wash buffer. […] The absorbance of samples was read at 492 nm in the plate reader. […] TGase levels were determined by subtracting background from the readings from each treatment and determining mean±s.d. for the replicates exposed to both Ab.
The level of TGase-1 detected after treatment of the cells could be influenced by cell number, i.e., the greater the number of cells the greater the level of TGase-1 detected. […]

[5] = Homo sapiens, Keratinocyte, Experiment 2, read-out: Transglutaminase level, % CONTROL

SMILES: C=CCCC(=O)/C=C/C1C(C)=CCCC1(C)C (stereo not drawn) [allyl alpha ionone]
inhibition at 10 µM [1]: 17%

SMILES: CC1=C(/C=C/C(C)=C/C=C/C(C)=C/CO)C(C)(C)CCC1 [Retinol]
activity at 1 µM ([2]; Homo sapiens, Keratinocyte, Experiment 1, .001 mM, read-out: Transglutaminase level, % CONTROL): 67%
activity at […] [2, 5]: 63.5%
effect on transglutaminase / keratinocyte differentiation (in words) [2]: not very effective
mean Thymidine incorp./μg protein ± s.d ([3]; […] 10^-7 M): 2218 ± 73 DPM/μg protein
mean Thymidine incorp./μg protein ± s.d ([3]; […] 10^-8 M): 2034 ± 46 DPM/μg protein
mean Thymidine incorp./μg protein ± s.d ([3]; […] 10^-9 M): 1977 ± 19 DPM/μg protein
keratinocyte differentiation / transglutaminase level (in words) [4]: The decrease in transglutaminase level was dose dependent
mean TGase/DNA × 10^-4 ± s.d ([4]; […] 10^-7 M): 1.14 ± 0.22 × 10^-4
mean TGase/DNA × 10^-4 ± s.d ([4]; […] 10^-8 M): 1.89 ± 0.30 × 10^-4
mean TGase/DNA × 10^-4 ± s.d ([4]; […] 10^-9 M): 2.70 ± 0.59 × 10^-4

SMILES: CC(=O)CCC1C(C)=CCCC1(C)C (stereo not drawn) [dihydro alpha ionone]
inhibition at 100 µM ([1]; Table C (comparative), 100 μM): 18%

SMILES: CC1=C(/C=C/C(C)=C/C=C/C(C)=C/C(=O)O)C(C)(C)CCC1 [Retinoic acid]
activity at […] ([2]; Homo sapiens, Keratinocyte, read-out: Transglutaminase level, % CONTROL, Experiment 1): 24%
activity at […] ([2]; Homo sapiens, Keratinocyte, read-out: Transglutaminase level, % CONTROL, Experiment 2): 8%
keratinocyte proliferation (in words) ([3]; […]10^-7 M, […]10^-8 and […]10^-9 M, over ethanol control and each retinol treatment): significantly increased keratinocyte proliferation
mean Thymidine incorp./μg protein ± s.d ([3]; […] 10^-7 M): 2475 ± 116 DPM/μg protein
mean Thymidine incorp./μg protein ± s.d ([3]; […] 10^-8 M): 2686 ± 72 DPM/μg protein
mean Thymidine incorp./μg protein ± s.d ([3]; […] 10^-9 M): 2556 ± 80 DPM/μg protein
keratinocyte differentiation / transglutaminase level (in words) [4]: decreased keratinocyte differentiation

Further lines, with some results ahead:

% INHIBITION, LRAT ([1]; Table C (comparative), 100 μM): 0%
SMILES: CC(C)[C@@H]1CC[C@@H](C)CC1=O [mentone]

inhibition at 100 µM ([1]; Table A, 100 μM): 33%
SMILES: CCCC(O)CCC1C(C)CCCC1(C)C (stereo not drawn) [timberol]

effect on transglutaminase / keratinocyte differentiation (in words) [2]: not very effective
SMILES: C/C=C/C(=O)C1C(C)=CCCC1(C)C (stereo not drawn) [alpha damascone]
activity at 1000 µM ([2]; Homo sapiens, Keratinocyte, Experiment 1, read-out: Transglutaminase level, % CONTROL): 92%
activity at 1000 µM [2, 5]: 86%

inhibition at 100 µM ([1]; Table A, 100 μM): 79%
inhibition at 10 µM [1]: 29%
SMILES: C/C=C/C(=O)C1C(C)=CC=CC1(C)C (stereo not drawn) [damascenone]

inhibition at 100 µM ([1]; Table A, 100 μM): 38%
SMILES: C=C1CCCC(C)(C)C1/C=C/C(=O)CC (stereo not drawn) [gamma methyl ionone]
